Results as given in patent US20250339415A1, “DISULFIDE COMPOUNDS AS MEDICAMENTS” (CYTACOAT AB, priority 2021, published 2025).
Structures can show the parent of a compound that is named as a salt.

Experiments:
Format in all cases: cell-based
[1] = test system: Staphylococcus aureus B5381; assay: Minimum inhibitory concentration (MIC), visible growth
Experimental: (§1) • 1. Using a sterile inoculating loop, transfer bacteria/Candida albicans from frozen stock culture and streak them on a fresh LA plate. • 2. Incubate the plate at 37° C. overnight (o/n) (18-24 h).
(§2) • 1. Prepare bacterial culture by adding 20 ml Mueller Hinton broth (*) to a 250-ml Erlenmeyer flask with sidearm. • 2. Using a sterile inoculating loop, pick approximately 10 colonies from the o/n bacterial culture and transfer bacteria to the flask. • 3. Incubate the E-flask with bacteria on a rotating shaker at 37° C. until OD590=0.40. This OD should equal an approximate bacterial count of 1×10^8 cfu/ml (**) • This is measured using a colorimeter (or spectrophotometer). Set reference and press R (=reference) first, then measure the bacterial culture by pressing T (=test). • 4. At OD590 0.40, serially dilute the bacterial suspension 1:10 000 in Mueller Hinton broth to obtain a bacterial target concentration of 1×10^4 cfu/ml. Determine the initial inoculation by serially diluting 0.1 ml in 0.9 ml blanks of sterile PBS and plating 0.1 ml aliquots to LA plates, preferably. • 5. Different concentrations of the tested compound are prepared in 0.6-0.8 ml of the final dilution of bacterial suspension and placed in 2-ml test tubes. • 6. Incubate test tubes in an orbital shaker incubator at 37° C. for 24 h.
(§3) • 7. Analyze visible growth, i.e. “Foggy” or “Clear”. MIC is being defined as the interval between the highest “Foggy” and the lowest “Clear” concentration of the compound.
(§4) Different concentrations of PDEA (Example 1) in Mueller Hinton medium were prepared. Bacteria were inoculated to a concentration of 20 000 CFU/ml and incubated at 37° C. for 24 hours. Minimum inhibitory concentrations (MICs) were determined by analyzing visible growth, i.e., readouts were “Clear” and “Foggy”.
(§5) Different concentrations of the quaternary ammonium PDEA (Example 2) in Mueller Hinton medium were prepared. Bacteria were inoculated to a concentration of 20 000 CFU/ml and incubated at 37° C. for 24 hours. Minimum inhibitory concentrations (MICs) were determined by analyzing visible growth, i.e., readouts were “Clear” and “Foggy”.
(§6) Different concentrations of this compound in Mueller Hinton medium were prepared. Bacteria were inoculated to a concentration of 20 000 CFU/ml and incubated at 37° C. for 24 hours. Minimum inhibitory concentrations (MICs) were determined by analyzing visible growth, i.e., readouts were “Clear” and “Foggy”.
(§7) Different concentrations of this compound were prepared in Mueller Hinton broth. Bacteria were inoculated to a concentration of 20 000 CFU/ml and incubated at 37° C. for 24 hours. Minimum inhibitory concentrations (MICs) were determined by analyzing visible growth, i.e., readouts were “Clear” and “Foggy”.

[2] = test system: Enterococcus faecium #11 (KI, Clinical Isolate); assay: as above
Experimental: as §1, §2, §3, §4, §5, §6, §7

[3] = test system: Staphylococcus epidermidis Se19 (Clinical Isolate, Jan Ingemar Falk); assay: as above
Experimental: as §1, §2, §3, §4, §5, §6, §7

[4] = test system: Pseudomonas aeruginosa PA02; assay: as above
Experimental: as §1, §2, §3, §4, §5, §6, §7

[5] = test system: Klebsiella pneumoniae AO15200; assay: as above
Experimental: as §1, §2, §3, §4, §5, §6, §7

Escherichia coli CFT073 = assay: as above
Experimental: as §1, §2, §3, §4, §5, §6, §7

[6] = test system: Enterococcus faecalis #28 (KI, Clinical Isolate); assay: as above
Experimental: as §1, §2, §3, §4, §5, §6, §7

S. aureus = assay: Combination therapy: Fradiomycin with PDEA, visible growth; conditions: Fradiomycin 0 μg/ml
Experimental: (§8) Different concentrations of Fradiomycin in Mueller Hinton were prepared in 3 different concentrations of PDEA. E. coli and S. aureus were inoculated (10^5) and were incubated overnight. Readouts were “Clear” and “Foggy”.

E. coli = assay: as above; conditions: Fradiomycin 0 μg/ml
Experimental: as §8

For `NCCSSc1ccccn1` [PDEA, 2-(Pyridyldithio)ethylamine (hydrochloride)], the visible growth readout ([1]; 0.05 mM) was “Foggy”, the visible growth readout ([1]; 0.1 mM) was “Foggy” and the visible growth readout ([1]; 0.2 mM) was “Clear”. For the same compound, the visible growth readout ([1]; 0.4 mM) was “Clear”, the MIC ([1]; Staphylococcus aureus, B5381, 24 h) was 100 to 200 µM and the visible growth readout ([2]; 0.01 mM) was “Foggy”. The visible growth readout ([2]; 0.025 mM) was “Foggy”, the visible growth readout ([2]; 0.05 mM) was “Clear” and the visible growth readout ([2]; 0.1 mM) was “Clear”. For the same compound, the MIC ([2]; Enterococcus faecium, 24 h) was 25 to 50 µM, the visible growth readout ([3]; 0.01 mM) was “Foggy” and the visible growth readout ([3]; 0.025 mM) was “Foggy”. The visible growth readout ([3]; 0.05 mM) was “Clear”, the visible growth readout ([3]; 0.1 mM) was “Clear” and the MIC ([3]; Staphylococcus epidermidis, 24 h) was 25 to 50 µM. For the same compound, the visible growth readout ([4]; 0.05 mM) was “Foggy”, the visible growth readout ([4]; 0.1 mM) was “Foggy” and the visible growth readout ([4]; 0.2 mM) was “Clear”. For the same compound, the visible growth readout ([4]; 0.4 mM) was “Clear”, the MIC ([4]; Pseudomonas aeruginosa, PA02, 24 h) was 100 to 200 µM and the visible growth readout ([5]; 0.01 mM) was “Foggy”. The visible growth readout ([5]; 0.025 mM) was “Foggy”, the visible growth readout ([5]; 0.05 mM) was “Foggy” and the visible growth readout ([5]; 0.1 mM) was “Clear”. The MIC ([5]; Klebsiella pneumoniae, AO15200, 24 h) was 50 to 100 µM, the visible growth readout (Escherichia coli CFT073; 0.01 mM) was “Foggy” and the visible growth readout (Escherichia coli CFT073; 0.025 mM) was “Foggy”. The visible growth readout (Escherichia coli CFT073; 0.05 mM) was “Foggy”, the visible growth readout (Escherichia coli CFT073; 0.1 mM) was “Clear” and the MIC (Escherichia coli CFT073; Escherichia coli, CFT073, 24 h) was 50 to 100 µM. The visible growth readout ([6]; 0.05 mM) was “Foggy”, the visible growth readout ([6]; 0.1 mM) was “Foggy” and the visible growth readout ([6]; 0.2 mM) was “Clear”. The visible growth readout ([6]; 0.4 mM) was “Clear”, the MIC ([6]; Enterococcus faecalis, 24 h) was 100 to 200 µM and the visible growth readout (S. aureus; PDEA 0.0125 mM) was “Foggy”. The visible growth readout (S. aureus; PDEA 0.025 mM) was “Foggy”, the visible growth readout (S. aureus; PDEA 0.05 mM) was “Foggy” and the visible growth readout (E. coli; PDEA 0.0125 mM) was “Foggy”. For the same compound, the visible growth readout (E. coli; PDEA 0.025 mM) was “Foggy” and the visible growth readout (E. coli; PDEA 0.05 mM) was “Clear”.
